Source: patent US6544985B2, “Dihydro-benzo [b][1,4]diazepin-2-one derivatives” (Hoffman-La Roche Inc., priority 2001, dated 2003)

Work on `CN(C)c1cc2c(cc1C(F)(F)F)NC(=O)CC(c1cccc(-n3nncc3CNCC(F)(F)F)c1)=N2` [Example 76, 7-Dimethylamino-4-(3-{5-[(2,2,2-trifluoro-ethylamino)methyl]-[1,2,3]triazol-1-yl}-phenyl)8-trifluoromethyl-1,3-dihydro-benzo[b][1,4]diazepin-2-one] yielded a melting point of 168 to 170 °C. `CN(CC1CC1)c1cc2c(cc1C(F)(F)F)NC(=O)CC(c1cccc(-n3nncc3CO)c1)=N2` [Example 77, 7-(Cyclopropylmethyl-methyl-amino)-4-[3-(5-hydroxymethyl-[1,2,3]triazol-1-yl)-phenyl]-8-trifluoromethyl-1,3-dihydro-benzo[b][1,4]diazepin-2-one] gave a melting point of 212 °C. `CN(C)c1cc2c(cc1C(F)(F)F)NC(=O)CC(c1cccc(-n3cc(CNC4CC4)cn3)c1)=N2` [Example 79, 4-[3-(4-Cyclopropylaminomethyl-pyrazol-1-yl)-phenyl]-7-dimethylamino-8-trifluoromethyl-1,3-dihydro-benzo[b][1,4]diazepin-2-one] gave a melting point of 135 °C. With `CN(CC1CC1)c1cc2c(cc1C(F)(F)F)NC(=O)CC(c1cccc(-n3nncc3CNC3CC3)c1)=N2` [Example 80, 4-[3-(5-Cyclopropylaminomethyl-[1,2,3]triazol-1-yl)-phenyl]-7-(cyclopropylmethyl-methyl-amino)-8-trifluoromethyl-1,3-dihydro-benzo[b][1,4]diazepin-2-one] the melting point was 35 to 46 °C. For `CN(C)c1cc2c(cc1C(F)(F)F)NC(=O)CC(c1cccc(-c3ccnn3CCO)c1)=N2` [Example 81, 7-Dimethylamino-4-{3-[2-(2-hydroxy-ethyl)-2H-pyrazol-3-yl]-phenyl}-8-trifluoromethyl-1,3-dihydro-benzo[b][1,4]diazepin-2-one], the melting point was 138 °C. In the case of `CN(c1cc2c(cc1C(F)(F)F)NC(=O)CC(c1ccnc(C#N)c1)=N2)C1CC1` [Example 83, 4-[8-(Cyclopropyl-methyl-amino)-4-oxo-7-trifluoromethyl-4,5-dihydro-3H-benzo[b][1,4]diazepin-2-yl]-pyridine-2-carbonitrile], the melting point is reported as 200 to 205 °C. Work on `CN(C)c1cc2c(cc1C(F)(F)F)NC(=O)CC(c1cccc(-n3nncc3CCO)c1)=N2` [Example 85, 7-Dimethylamino-4-{3-[5-(2-hydroxy-ethyl)-[1,2,3]triazol-1-yl]-phenyl}-8-trifluoromethyl-1,3-dihydro-benzo[b][1,4]diazepin-2-one] yielded a melting point of 172 to 175 °C. In the case of `CN(C)c1cc2c(cc1C(F)(F)F)NC(=O)CC(c1cccc(-n3nccc3CO)c1)=N2` [Example 86, 7-Dimethylamino-4-[3-(5-hydroxymethyl-pyrazol-1-yl)-phenyl]-8-trifluoromethyl-1,3-dihydro-benzo[b][1,4]diazepin-2-one], the melting point is reported as 228 to 229 °C. For `CN(C)c1cc2c(cc1C(F)(F)F)NC(=O)CC(c1cccc(-n3ccnn3)c1)=N2` [Example 87, 7-Dimethylamino-4-(3-[1,2,3]triazol-1-yl-phenyl)-8-trifluoromethyl-1,3-dihydro-benzo[b][1,4]diazepin-2-one], the melting point was 210 to 212 °C. For `Cc1cc2c(cc1N(C)C)N=C(c1cccc(C#N)c1)CC(=O)N2` [Example 89, 3-(8-Dimethylamino-7-methyl-4-oxo-4,5-dihydro-3H-benzo[b][1,4]diazepin-2-yl)-benzonitrile], the melting point was 257 °C. `Cc1cc2c(cc1N(C)C)N=C(c1cccc(-n3nncc3CO)c1)CC(=O)N2` [Example 90, 7-Dimethylamino-4-[3-(5-hydroxymethyl-[1,2,3]triazol-1-yl)-phenyl]-8-methyl-1,3-dihydro-benzo[b][1,4]diazepin-2-one] gave a melting point of 190 °C. `CN(C)c1cc2c(cc1C#N)NC(=O)CC(c1cccc(C#N)c1)=N2` [Example 91, 2-(3-Cyano-phenyl)-8-dimethylamino-4-oxo-4,5-dihydro-3H-benzo[b][1,4]diazepine-7-carbonitrile] showed a melting point of 251 °C. `CCCN(C)c1cc2c(cc1C)NC(=O)CC(c1cccc(-n3nncc3CO)c1)=N2` [Example 93, 4-[3-(5-Hydroxymethyl-[1,2,3]triazol-1-yl)-phenyl]-8-methyl-7-(methyl-propyl-amino)-1,3-dihydro-benzo[b][1,4]diazepin-2-one] showed a melting point of 186 °C. Work on `CCN(C)c1cc2c(cc1C)NC(=O)CC(c1cccc(-n3nncc3CO)c1)=N2` [Example 94, 7-(Ethyl-methyl-amino)-4-[3-(5-hydroxymethyl-[1,2,3]triazol-1-yl)-phenyl]-8-methyl-1,3-dihydro-benzo[b][1,4]diazepin-2-one] yielded a melting point of 207 °C. Molecule `CN(C)c1cc2c(cc1C#N)NC(=O)CC(c1cccc(-n3nncc3CO)c1)=N2` [Example 95, 8-Dimethylamino-2-[3-(5-hydroxymethyl-[1,2,3]triazol-1-yl)-phenyl]-4-oxo-4,5-dihydro-3H-benzo[b][1,4]diazepine-7-carbonitrile] has a melting point of 234 °C. Work on `CC(C)N(C)c1cc2c(cc1Cl)NC(=O)CC(c1cccc(-n3nncc3CO)c1)=N2` [Example 96, 8-Chloro-4-[3-(5-hydroxymethyl-[1,2,3]triazol-1-yl)-phenyl]-7-(isopropyl-methyl-amino)-1,3-dihydro-benzo[b][1,4]diazepin-2-one] yielded a melting point of 207 °C. `CCCN(C)c1cc2c(cc1C)NC(=O)CC(c1cccc(-c3cc(C)no3)c1)=N2` [Example 97, 8-Methyl-4-[3-(3-methyl-isoxazol-5-yl)-phenyl]-7-(methyl-propyl-amino)-1,3-dihydro-benzo[b][1,4]diazepin-2-one] gave a melting point of 194 °C. `Cc1cc(-c2cccc(C3=Nc4cc(N(C)C)c(C#N)cc4NC(=O)C3)c2)on1` [Example 98, 8-Dimethylamino-2-[3-(3-methyl-isoxazol-5-yl)-phenyl]-4-oxo-4,5-dihydro-3H-benzo[b][1,4]diazepine-7-carbonitrile] gave a melting point of 248 °C. For `Cc1cc(-c2cccc(C3=Nc4cc(N(C)C)c(C)cc4NC(=O)C3)c2)on1` [Example 100, 7-Dimethylamino-8-methyl-4-[3-(3-methyl-isoxazol-5-yl)-phenyl]-1,3-dihydro-benzo[b][1,4]diazepin-2-one], the melting point was 204 °C. Work on `Cc1cc(-c2cccc(C3=Nc4cc(N(C)CC(C)C)c(Cl)cc4NC(=O)C3)c2)on1` [Example 102, 8-Chloro-7-(isobutyl-methyl-amino)-4-[3-(3-methyl-isoxazol-5-yl)-phenyl]-1,3-dihydro-benzo[b][1,4]diazepin-2-one] yielded a melting point of 194 °C. `N#Cc1cc2c(cc1N1CCCC1)N=C(c1cccc(-n3nncc3CO)c1)CC(=O)N2` [Example 103, 2-[3-(5-Hydroxymethyl-[1,2,3]triazol-1-yl)-phenyl]-4-oxo-8-pyrrolidin-1-yl-4,5-dihydro-3H-benzo[b][1,4]diazepine-7-carbonitrile] gave a melting point of 241 °C. Work on `Cc1cc(-c2cccc(C3=Nc4cc(N5CCCC5)c(C#N)cc4NC(=O)C3)c2)on1` [Example 104, 2-[3-(3-Methyl-isoxazol-5-yl)-phenyl]-4-oxo-8-pyrrolidin-1-yl-4,5-dihydro-3H-benzo[b][1,4]diazepine-7-carbonitrile] yielded a melting point of 267 °C. Work on `CCCN(C)c1cc2c(cc1C#N)NC(=O)CC(c1cccc(-n3nncc3CO)c1)=N2` [Example 105, 2-[3-(5-Hydroxymethyl-[1,2,3]triazol-1-yl)-phenyl]-8-(methyl-propyl-amino)-4-oxo-4,5-dihydro-3H-benzo[b][1,4]diazepine-7-carbonitrile] yielded a melting point of 221 °C. Molecule `CCCN(C)c1cc2c(cc1C#N)NC(=O)CC(c1cccc(-c3cc(C)no3)c1)=N2` [Example 106, 2-[3-(3-Methyl-isoxazol-5-yl)-phenyl]-8-(methyl-propyl-amino)-4-oxo-4,5-dihydro-3H-benzo[b][1,4]diazepine-7-carbonitrile] has a melting point of 133 °C. Molecule `Cc1cc(-c2cccc(C3=Nc4cc(N(C)C(C)C)c(C#N)cc4NC(=O)C3)c2)on1` [Example 108, 8-(Isopropyl-methyl-amino)-2-[3-(3-methyl-isoxazol-5-yl)-phenyl]-4-oxo-4,5-dihydro-3H-benzo[b][1,4]diazepine-7-carbonitrile] has a melting point of 197 °C. In the case of `CC(C)N(C)c1cc2c(cc1C#N)NC(=O)CC(c1cccc(-n3nncc3CO)c1)=N2` [Example 109, 2-[3-(5-Hydroxymethyl-[1,2,3]triazol-1-yl)-phenyl]-8-(isopropyl-methyl-amino)-4-oxo-4,5-dihydro-3H-benzo[b][1,4]diazepine-7-carbonitrile], the melting point is reported as 206 °C. `Cc1cc(-c2cccc(C3=Nc4cc(N(C)CC(C)C)c(C#N)cc4NC(=O)C3)c2)on1` [Example 110, 8-(Isobutyl-methyl-amino)-2-[3-(3-methyl-isoxazol-5-yl)-phenyl]-4-oxo-4,5-dihydro-3H-benzo[b][1,4]diazepine-7-carbonitrile] gave a melting point of 170 °C. For `Cc1cc(-c2cccc(C3=Nc4cc(N5CCCCC5)c(C#N)cc4NC(=O)C3)c2)on1` [Example 112, 2-[3-(3-Methyl-isoxazol-5-yl)-phenyl]-4-oxo-8-piperidin-1-yl-4,5-dihydro-3H-benzo[b][1,4]diazepine-7-carbonitrile], the melting point was 246 °C. In the case of `CCCN(C)c1cc2c(cc1C(F)(F)F)NC(=O)CC(c1cccc(-n3nncc3CO)c1)=N2` [Example 115, 4-[3-(5-Hydroxymethyl-[1,2,3]triazol-1-yl)-phenyl]-7-(methyl-propyl-amino)-8-trifluoromethyl-1,3-dihydro-benzo[b][1,4]diazepin-2-one], the melting point is reported as 230 °C. `CCCN(C)c1cc2c(cc1C(F)(F)F)NC(=O)CC(c1cccc(-c3cc(C)no3)c1)=N2` [Example 116, 4-[3-(3-Methyl-isoxazol-5-yl)-phenyl]-7-(methyl-propyl-amino)-8-trifluoromethyl-1,3-dihydro-benzo[b][1,4]diazepin-2-one] gave a melting point of 193 °C. Work on `Cc1cc(-c2cccc(C3=Nc4cc(N(C)CC(C)C)c(C(F)(F)F)cc4NC(=O)C3)c2)on1` [Example 118, 7-(Isobutyl-methyl-amino)-4-[3-(3-methyl-isoxazol-5-yl)-phenyl]-8-trifluoromethyl-1,3-dihydro-benzo[b][1,4]diazepin-2-one] yielded a melting point of 195 °C.
